In patent US20060013897A1, “Compositions for cancer therapy saponins or sapogenins” (priority 2002, published 2006):

Assays:
Format in all cases: cell-based
[1] = system: human breast cancer cells (MCF7); experiment: MTT cytotoxicity assay, MCF7 cells; conditions: 15 μg/mL (individual components at similar concentrations), MTT at 24 hours
Source text: (§1) Preparation of Compositions: A process of preparing a composition comprising of Rh2, aPPD, and aPPT saponins and/or sapogenins from plants selected from the group consisting of panax ginseng, panax quinguefol and panax notoginseng, or a sapogenin source from some other plant, and proceeding according to the following steps: • (a) mixing the ginsenoside extract with water; • (b) (i) mixing the ginsenoside extract and water with a short-chain (1-5 carbon) alkali-metal alcoholate solution or a hydroxide-ethanol solution to produce a mixture; and • (ii) placing the resultant mixture in a reaction tank so that the resultant mixture can undergo chemical reactions at a temperature between 240 and 300° C. and at a pressure between 3.5 and 8.4 MPa; or • (c) (i) alternatively, mixing the ginsenosides extract with ethanol; • (ii) mixing the extract and ethanol with alkali-metal alcoholates solution to produce a mixture, and • (iii) placing the resultant mixture in a reaction tank so that the resultant mixture can undergo chemical reactions at a temperature between 240 and 300° C. and at a pressure between 3.5 and 8.4 MPa; and • (d) after the reaction is completed, collecting an intermediate product of a mix of saponins and/or sapogenins from the ethanol mixture. Cytotoxicity was measured using a standard microculture tetrazolium assay (MTT) (Alley, M C et al, Cancer Research 48:589-601, 1988). Exponentially growing cultures of tumor cells, including multi-drug resistant cell lines, were used to make microtiter plate cultures. Cells were seeded at 1.2×10^3 cells per well in 96-well plates, and grown overnight at 37° C. Test compounds were then added. Cells were treated for 24 hours. To determine the number of viable cells in each well, the MTT dye was added (3-(4,5-dimethylthiazol-2-yl)-2,5-diphenyltetrazolium bromide in saline) in accordance with the standard practice known in the art.
Cultured human breast cancer cells (MCF7) were treated with the saponins and sapogenins Rh2, aPPT, and aPPD, individually, at various concentrations. […]

[2] = system: mouse melanoma cells (B16); experiment: MTT cytotoxicity assay, B16 cells; conditions: 10 μg/mL (individual components at similar concentrations), MTT at 24 hours
Source text: as §1
Cultured mouse melanoma cells (B16) were treated with the saponins and sapogenins Rh2, aPPT, and aPPD, individually, at various concentrations. […]

[3] = system: human glioma tumor cells (U87); experiment: MTT cytotoxicity assay, U87 cells; conditions: 15 μg/mL (individual components at similar concentrations), MTT at 24 hours
Source text: as §1
Cultured human glioma tumor cells (U87) were treated with the saponins and sapogenins Rh2, aPPT, and aPPD, individually, at various concentrations. […]

With `CC(C)=CCC[C@](C)(O)[C@H]1CC[C@]2(C)[C@@H]1[C@H](O)C[C@@H]1[C@@]3(C)CC[C@H](O[C@@H]4O[C@H](CO)[C@@H](O)[C@H](O)[C@H]4O)C(C)(C)[C@@H]3CC[C@]12C` [Rh2, 3-O-β-D-glucopyranosyl-20(s)-protopanaxadiol] the cancer cells killed [1] was 68%, the cancer cells killed [2] was 56% and the cancer cells killed [3] was 64%.
In the case of `CC(C)=CCC[C@@](C)(O)[C@H]1CC[C@]2(C)[C@@H]1[C@H](O)C[C@@H]1[C@@]3(C)CC[C@H](O)C(C)(C)[C@@H]3CC[C@]12C` [aPPD, aglycon protopanaxadiol], the cancer cells killed [1] is reported as 69%, the cancer cells killed [2] is reported as 44% and the cancer cells killed [3] is reported as 52%.
With `CC(C)=CCC[C@](C)(O)[C@H]1CC[C@]2(C)[C@@H]1[C@H](O)C[C@@H]1[C@@]3(C)CC[C@H](O)C(C)(C)[C@@H]3[C@@H](O)C[C@]12C` [aPPT, aglycon protopanaxatriol] the cancer cells killed [1] was 68%, the cancer cells killed [2] was 47% and the cancer cells killed [3] was 29%.
